Reference: patent US10464882B2, “Y-type discrete polyethylene glycol derivative and preparation method thereof” (JENKEM TECHNOLOGY CO., LTD. (BEIJING), priority 2015, dated 2019)
Where two headings read alike, the source gives them in different places.

Columns and labels:
[1] = Comparison test of solubility of cholesterol derivatives in water (Chinese pharmacopoeia method); format: physicochemical
Procedure: The solubility of cholesterol derivatives in water was determined according to the method in “Chinese pharmacopoeia”: […] After 30 min, 1.5 mL water was further added, and the resulting mixture was placed in a 20° C. water bath with the same procedure for dissolution. Until 9 mL water was added, the solution was clear. […] After 30 min, 5 mL water was further added, and the resulting mixture was placed in a 20° C. water bath with the same procedure for dissolution until 25 mL water was added. 5 mL solution was taken from the dilute solution, the same procedure was carried out until 10 mL water was added, and the solution was clear.

[2] = Comparison test of dispersion of cholesterol and cholesterol derivatives in water; format: physicochemical; details: 20 mg in 50 mL water, 20° C. water bath, shaken vigorously every 5 min for 30 min

Row | solubility in water [1] | dispersion in water, naked eye observation [2] | solubility in water ([1]; water, 20° C. water bath, shaken every 5 min for 30 min) | Compound
1 | 4.61 mg/100 g | white emulsion | – | COCCOCCOCCOCCOCCOCCOCCOC(=O)O[C@H]1CC[C@@]2(C)C(=CC[C@H]3[C@@H]4CC[C@H]([C@H](C)CCCC(C)C)[C@@]4(C)CC[C@@H]32)C1 [cholesterol derivative of mEG7-OH]
2 | – | completely insoluble | < 0.2 mg/100 g | CC(C)CCC[C@@H](C)[C@H]1CC[C@H]2[C@@H]3CC=C4C[C@@H](O)CC[C@]4(C)[C@H]3CC[C@]12C [cholesterol]
